SMILES strings stand for the structures.

Data on one compound can be found in patent publication US8101740B2, “Positron emission tomography probes for imaging immune activation and selected cancers” (The Regents of the University of California, priority 2007, dated 2012).

The subject of data set [1] is human U87 cells. The data set can be described thus: microPET/CT of implanted U87 glioma. Format: in vivo, SCID mice. The note with it: imaged 10 days after 1×10^6 cells subcutaneously. On the procedure: (§1) In addition to immune diseases, [^18F]D-FAC may also be used to measure dysregulated nucleoside metabolism in cancer. To this end, we examined the utility of [^18F]D-FAC microPET in animal models representative of leukemia or lymphoma, melanoma, and glioma tumors (FIG. 12, where the images are 1 mm coronal sections from [^18F]D-FAC microPET/CT scans 1 hr after probe injection). In FIG. 12A, SCID mice were injected intravenously with Ba/F3 cells expressing p210 BCR-ABL and go on to develop aggressive disease with massive splenic infiltration that typically results in death within ˜15 days (mice shown were imaged on day 12). In FIG. 12B, the NOD SCID mice were transplanted with wild type total bone marrow cells infected with MSCV-GFP-IRES-P185 BCR-ABL retroviral stocks and the leukemic mice were imaged 28 days following transplantation. In FIG. 12C, C57BL/6 was injected subcutaneously with 1×10^5 B16 melanoma cells and imaged 7 days later. In FIG. 12D, SCID mice were injected subcutaneously with 1×10^6 U87 glioma cells and imaged 10 days later. […] [^18F]D-FAC PET also detected implanted murine B16 cells (representative of malignant melanoma) and human U87 cells (representative of glioma tumors). […]

Data set [2] relates to splenic CD8+T cells. The data set can be described thus: radioactivity in sorted splenic CD8+T cells from mice injected with probe. It counts as in vivo. The settings on record: CD62LLOW/CD44HIGH vs CD62LHIGH/CD44LOW.
Excerpt: To further investigate the cellular basis of elevated [^18F]D-FAC retention, splenic CD8+T cells from mice injected with [^18F]FAC were fractionated by flow cytometry into naïve (CD62LHIGH/CD44LOW) and effector populations (CD62LLOW/CD44HIGH).
Data set [3] has as its system Bcr-Abl-expressing Ba/F3 cells and Bcr-Abl transformed bone marrow. Nature of the data set: microPET/CT of Bcr-Abl oncogene-induced leukemia models. It counts as in vivo, mouse. The note with it: 1 hr after probe injection. On the procedure: as §1, with “later.” for “later. In FIG. 12D, SCID mice were injected subcutaneously with 1×10^6 U87 glioma cells and imaged 10 days later.”
Six to 8 week old mice with severe combined immunodeficiency (NOD SCID) were sublethally irradiated (275 rads) one day prior to reconstitution. […] Animals were monitored daily for signs of illness during a period of two months as previously described^10. […]

Data set [4] can be described thus: biodistribution and radiation dosimetry in healthy human subjects. Format: in vivo. On the procedure:
[^18F]D-FAC was evaluated in humans to a preliminary degree, whereby we investigated the normal biodistribution and radiation dosimetry of [^18F]D-FAC in human subjects (FIG. 16). […] Emission scans were acquired 20, 48, and 76 min post injection and radiation dosimetry estimates were calculated using the Olinda® software. […] The radiation dosimetry estimates show high agreement with the dosimetry results obtained from the studies in mice. The dose-limiting organs were the urinary bladder wall and the kidneys.

Data set [5] is described as follows: microPET/CT in Fas^1pr systemic autoimmunity model. It counts as in vivo, B6-MRL-Fas^1pr/J mice.
In data set [6] the test system is lymphoma lesion. Nature of the data set: PET scan of human subject with lymphoma lesion. Format: in vivo. The settings on record: coronal PET image. The source says:
FIG. 29 presents PET scan images of a human subject after injection of [^18F]D-FAC. […] The heterogeneous spleen 292 is visible.

In the case of `Nc1ccn([C@@H]2O[C@H](CO)[C@@H](O)[C@@H]2[18F])c(=O)n1` [[^18F]D-FAC, 1-(2′-deoxy-2′-[^18F]fluoro-β-D-arabinofuranosyl)cytosine], in data set [1], the “detection of implanted tumor cells by PET” value is listed as “detected”. For the same compound, the “retention in effector CD8+T cells versus naïve cytotoxic T cells” value in data set [2] is recorded as roughly 4 fold. The “retention in the spleen” value in data set [3] is on record as “increased”. Moreover, in data set [4] (3 healthy male subjects), the “absorbed dose, heart wall” value came to 5.92E-02 rem/mCi; the “absorbed dose, kidneys” value was 1.06E-01 rem/mCi; the “absorbed dose, osteogenic cells” value turned out to be 6.69E-02 rem/mCi; the “absorbed dose, small intestine” value was 5.80E-02 rem/mCi. Also, in data set [4] (3 healthy male subjects), the “absorbed dose, spleen” value came out at 7.36E-02 rem/mCi; the “absorbed dose, urinary bladder wall” value turned out to be 2.06E-01 rem/mCi; the effective dose overall worked out at 5.08E-02 rem/mCi. For the same compound, the “retention in the GI tract in humans in contrast to mice” value in data set [4] (human, in vivo) was “substantially lower”. Further, the “organs with the highest accumulation” value in data set [4] (scans 20, 48 and 76 min post injection) was “the bladder, the kidneys, the spleen, the salivary glands, and the heart”. The route of clearance result (dynamic microPET/CT time-activity curves) is “predominantly cleared through the kidney”. In addition, the “retention in the brain and the myocardium” value (mouse, in vivo) is given as “low retention”. Also, under “one hour after intravenous injection”, the “organs with accumulated radioactivity” value is “thymus, spleen, intestine, bone/bone marrow and, to a lesser extent, in the liver”. The “Spleen, % ID/g per organ normalized to % ID/g muscle” value (spleen, 60 min after intravenous injection, 3 mice) is on record as 2.16 +/− 0.48 % ID/g per organ normalized to % ID/g muscle. The “Thymus, % ID/g per organ normalized to % ID/g muscle” value (thymus, 60 min after intravenous injection, 3 mice) is recorded as 3.29 +/− 0.48 % ID/g per organ normalized to % ID/g muscle. Besides, in data set [5] (Fas^1pr/J mice), the “mice with enlarged LNs on microPET scans” value is given as 9 out of 13. The “mice with probe-positive LNs” value in data set [5] (wild type mice) is reported as 2 out of 19. In addition, in data set [6], the “concentration in lymph node” value is “high concentration”.
